Test results from US20250115598A1 (Anaxis Pharma Pty Ltd, priority 2021, published 2025).
pKd: −log10 of the molar value.

Tests used:
[1] = target: human RIPK3 (Homo sapiens (Human), UniProt Q9Y572); experiment: KINOMEscan binding assay, human RIPK3; conditions: Table 21
In short: (§1)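 Binding constants were derived by fitting qPCR-quantified bead-retained kinase against compound concentration to the Hill equation, slope set at −1. Compound series were 3-fold over 11 points with 1% DMSO; most top concentrations were 30,000 nM. Kinases were T7-phage-tagged or HEK-293-produced with DNA tags.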

[2] = target: human RIPK1 (Homo sapiens (Human), UniProt Q13546); experiment: KINOMEscan binding assay, human RIPK1; conditions: Table 21
In short: as §1

Sequence of human RIPK3 (Q9Y572 whole entry): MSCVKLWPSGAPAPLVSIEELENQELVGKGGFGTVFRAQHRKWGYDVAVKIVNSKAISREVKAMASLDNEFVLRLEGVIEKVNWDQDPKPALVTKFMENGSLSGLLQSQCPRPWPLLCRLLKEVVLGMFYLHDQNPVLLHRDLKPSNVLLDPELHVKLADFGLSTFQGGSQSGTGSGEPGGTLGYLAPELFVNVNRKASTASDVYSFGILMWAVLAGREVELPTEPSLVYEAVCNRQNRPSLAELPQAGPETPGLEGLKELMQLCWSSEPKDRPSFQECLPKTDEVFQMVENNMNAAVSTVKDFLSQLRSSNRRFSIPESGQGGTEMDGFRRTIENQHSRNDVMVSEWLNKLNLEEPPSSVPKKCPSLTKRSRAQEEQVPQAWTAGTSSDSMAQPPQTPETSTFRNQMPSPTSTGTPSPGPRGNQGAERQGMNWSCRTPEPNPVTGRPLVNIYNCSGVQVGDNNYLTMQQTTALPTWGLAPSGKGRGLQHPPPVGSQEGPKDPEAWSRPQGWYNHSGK
Sequence of human RIPK1 (Q13546 whole entry): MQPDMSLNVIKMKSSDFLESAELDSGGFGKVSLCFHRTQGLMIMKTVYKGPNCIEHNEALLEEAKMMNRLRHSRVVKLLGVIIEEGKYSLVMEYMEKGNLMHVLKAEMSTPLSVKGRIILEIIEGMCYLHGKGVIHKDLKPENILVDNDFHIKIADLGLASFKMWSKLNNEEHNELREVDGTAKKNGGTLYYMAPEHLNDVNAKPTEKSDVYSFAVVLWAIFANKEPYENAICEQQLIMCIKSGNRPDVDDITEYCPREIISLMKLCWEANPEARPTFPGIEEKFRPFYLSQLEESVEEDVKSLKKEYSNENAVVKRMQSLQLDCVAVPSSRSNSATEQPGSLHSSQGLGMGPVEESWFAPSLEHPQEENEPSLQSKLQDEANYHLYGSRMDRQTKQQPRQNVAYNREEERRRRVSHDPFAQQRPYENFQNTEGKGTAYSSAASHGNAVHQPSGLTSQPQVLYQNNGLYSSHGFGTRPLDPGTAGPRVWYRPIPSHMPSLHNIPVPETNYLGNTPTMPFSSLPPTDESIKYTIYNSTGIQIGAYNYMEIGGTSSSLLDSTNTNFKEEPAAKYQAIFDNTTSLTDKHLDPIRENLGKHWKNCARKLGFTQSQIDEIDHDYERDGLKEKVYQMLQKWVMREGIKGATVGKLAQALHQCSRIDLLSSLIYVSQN

| Compound | pKd [1] | pKd [2] |
| --- | --- | --- |
| C[C@H](Oc1cc(-c2nn(C)c3c(-c4cnc(N(C)C)nc4)cnc(N)c23)ccc1NS(=O)(=O)C(F)F)c1ccc(F)cc1 [Compound 106, (S)-N-(4-(4-amino-7-(2-(dimethylamino)pyrimidin-5-yl)-1-methyl-1H-pyrazolo[4,3-c]pyridin-3-yl)-2-(1-(4-fluorophenyl)ethoxy)phenyl)-1,1-difluoromethanesulfonamide] | < 5.00 | < 5.00 |
| C[C@H](Oc1cc(-c2nn(C)c3c(-c4ccc(N5CCN(C)CC5)nc4)cnc(N)c23)ccc1NS(=O)(=O)C(F)F)c1ccc(F)cc1 [Compound 107, (S)-N-(4-(4-amino-1-methyl-7-(6-(4-methylpiperazin-1-yl)pyridin-3-yl)-1H-pyrazolo[4,3-c]pyridin-3-yl)-2-(1-(4-fluorophenyl)ethoxy)phenyl)-1,1-difluoromethanesulfonamide] | < 5.00 | < 5.00 |
| COC[C@H](Oc1cc(-c2nn(C)c3c(-c4cnn(C5CCOCC5)c4)cnc(N)c23)ccc1NS(=O)(=O)C(F)F)c1ccc(F)cc1 [Compound 111, (R)—N-(4-(4-amino-1-methyl-7-(1-(tetrahydro-2H-pyran-4-yl)-1H-pyrazol-4-yl)-1H-pyrazolo[4,3-c]pyridin-3-yl)-2-(1-(4-fluorophenyl)-2-methoxyethoxy)phenyl)-1,1-difluoromethanesulfonamide] | < 5.00 | < 5.00 |
| COC[C@@H](Oc1cc(-c2nn(C)c3c(-c4cnn(C5CCOCC5)c4)cnc(N)c23)ccc1NS(=O)(=O)C(F)F)c1ccc(F)cc1 [Compound 112, (S)—N-(4-(4-amino-1-methyl-7-(1-(tetrahydro-2H-pyran-4-yl)-1H-pyrazol-4-yl)-1H-pyrazolo[4,3-c]pyridin-3-yl)-2-(1-(4-fluorophenyl)-2-methoxyethoxy)phenyl)-1,1-difluoromethanesulfonamide] | < 5.00 | < 5.00 |
| C[C@H](Oc1cc(-c2nn(C)c3c(-c4cnc(N5CCCC5)nc4)cnc(N)c23)ccc1NS(=O)(=O)C(F)F)c1ccc(F)cc1 [Compound 114, (S)-N-(4-(4-amino-1-methyl-7-(2-(pyrrolidin-1-yl)pyrimidin-5-yl)-1H-pyrazolo[4,3-c]pyridin-3-yl)-2-(1-(4-fluorophenyl)ethoxy)phenyl)-1,1-difluoromethanesulfonamide] | < 5.00 | < 5.00 |
| C[C@H](Oc1cc(-c2nn(C)c3c(-c4ccc(N5CCOCC5)nc4)cnc(N)c23)ccc1NS(=O)(=O)C(F)F)c1ccc(F)cc1 [Compound 115, (S)-N-(4-(4-amino-1-methyl-7-(6-morpholinopyridin-3-yl)-1H-pyrazolo[4,3-c]pyridin-3-yl)-2-(1-(4-fluorophenyl)ethoxy)phenyl)-1,1-difluoromethanesulfonamide] | < 5.00 | < 5.00 |
| C[C@H](Oc1cc(-c2nn(C)c3c(-c4cnn(CC(F)(F)F)c4)cnc(N)c23)ccc1NS(=O)(=O)C(F)F)c1ccc(F)cc1 [Compound 116, (S)-N-(4-(4-amino-1-methyl-7-(1-(2,2,2-trifluoroethyl)-1H-pyrazol-4-yl)-1H-pyrazolo[4,3-c]pyridin-3-yl)-2-(1-(4-fluorophenyl)ethoxy)phenyl)-1,1-difluoromethanesulfonamide] | < 5.00 | < 5.00 |
| C[C@H](Oc1cc(-c2nn(C)c3c(-c4ccc(C(F)(F)F)nc4)cnc(N)c23)ccc1NS(=O)(=O)C(F)F)c1ccc(F)cc1 [Compound 117, (S)-N-(4-(4-amino-1-methyl-7-(6-(trifluoromethyl)pyridin-3-yl)-1H-pyrazolo[4,3-c]pyridin-3-yl)-2-(1-(4-fluorophenyl)ethoxy)phenyl)-1,1-difluoromethanesulfonamide] | < 5.00 | < 5.00 |
| C[C@H](Oc1cc(-c2nn(C)c3c(-c4cnn(C5CCOCC5)c4)cnc(N)c23)ccc1NS(=O)(=O)C(F)F)c1ccccc1F [Compound 118, (S)-N-(4-(4-amino-1-methyl-7-(1-(tetrahydro-2H-pyran-4-yl)-1H-pyrazol-4-yl)-1H-pyrazolo[4,3-c]pyridin-3-yl)-2-(1-(2-fluoro-phenyl)ethoxy)phenyl)-1,1-difluoromethane-sulfonamide] | < 5.00 | < 5.00 |
| C[C@H](Oc1cc(-c2nn(C)c3c(-c4cnn(C5CCOCC5)c4)cnc(N)c23)ccc1NS(C)(=O)=O)c1ccc(F)cc1 [Compound 119, (S)-N-(4-(4-amino-1-methyl-7-(1-(tetrahydro-2H-pyran-4-yl)-1H-pyrazol-4-yl)-1H-pyrazolo[4,3-c]pyridin-3-yl)-2-(1-(4-fluorophenyl)ethoxy)phe-nyl)methanesulfonamide] | < 5.00 | < 5.00 |
| C[C@H](Oc1cc(-c2nn(C)c3c(-c4cnn(C5CCC(F)(F)C5)c4)cnc(N)c23)ccc1NS(=O)(=O)C(F)F)c1ccc(F)cc1 (stereo partly drawn) [Compound 120, N-(4-{4-amino-7-[1-(3,3-difluorocyclopentyl)-1H-pyrazol-4-yl]-1-methyl-1H-pyrazolo[4,3-c]pyridin-3-yl}-2-[(1S)-1-(4-fluorophenyl)ethoxy]phenyl)-1,1-difluoromethanesulfonamide] | < 5.00 | < 5.00 |
| C[C@H](Oc1cc(-c2nn(C)c3c(-c4cnn(C5CCOCC5)c4)cnc(N)c23)ccc1NS(=O)(=O)N(C)C)c1ccc(F)cc1 [Compound 124] | < 5.00 | < 5.00 |
| C[C@H](Oc1cc(-c2nn(C)c3c(-c4cnn(C5CCOCC5)c4)cnc(N)c23)ccc1NS(=O)(=O)Cc1ccccc1)c1ccc(F)cc1 [Compound 125, (S)-N-(4-(4-amino-1-methyl-7-(1-(tetra-hydro-2H-pyran-4-yl)-1H-pyrazol-4-yl)-1H-pyrazolo[4,3-c]pyridin-3-yl)-2-(1-(4-fluoro-phenyl)eth-oxy)phenyl)-1-phenylmethane-sulfonamide] | < 5.00 | < 5.00 |
| C[C@H](Oc1cc(-c2nn(C)c3c(-c4ccn(C)c4)cnc(N)c23)ccc1NS(=O)(=O)C(F)F)c1ccc(F)cc1 [Compound 126, (S)-N-(4-(4-amino-1-methyl-7-(1-methyl-1H-pyrrol-3-yl)-1H-pyrazolo[4,3-c]pyridin-3-yl)-2-(1-(4-fluorophenyl)ethoxy)phenyl)-1,1-difluoromethanesulfonamide] | < 5.00 | < 5.00 |
| C[C@H](Oc1cc(-c2nn(C)c3c(C#CC4CCN(CC(F)(F)F)CC4)cnc(N)c23)ccc1NS(=O)(=O)C(F)F)c1ccc(F)cc1 [Compound 128, (S)-N-(4-(4-amino-1-methyl-7-((1-(2,2,2-trifluoroethyl)piperidin-4-yl)ethynyl)-1H-pyrazolo[4,3-c]pyridin-3-yl)-2-(1-(4-fluorophenyl)ethoxy)phenyl)-1,1-difluoromethane-sulfonamide] | < 5.00 | < 5.00 |
| C[C@H](Oc1cc(-c2nn(C)c3c(-c4cnn(C(F)(F)F)c4)cnc(N)c23)ccc1NS(=O)(=O)C(F)F)c1ccc(F)cc1 [Compound 134, (S)-N-(4-(4-amino-1-methyl-7-(1-(trifluoromethyl)-1H-pyrazol-4-yl)-1H-pyrazolo[4,3-c]pyridin-3-yl)-2-(1-(4-fluorophenyl)ethoxy)phenyl)-1,1-difluoromethanesulfonamide] | < 5.00 | < 5.00 |
| COCC(Oc1cc(-c2nn(C)c3c(-c4cnn(C5CCN(C)CC5)c4)cnc(N)c23)ccc1NS(=O)(=O)C(F)F)c1ccc(F)cc1 (centres unmarked) [Compound 139, N-(4-(4-amino-1-methyl-7-(1-(1-methyl-piperidin-4-yl)-1H-pyrazol-4-yl)-1H-pyrazolo[4,3-c]pyridin-3-yl)-2-(1-(4-fluorophenyl)-2-methoxyethoxy)phe-nyl)-1,1-difluoro-methanesulfonamide] | < 5.00 | < 5.00 |
| Cn1nc(-c2ccc(NS(=O)(=O)C(F)F)c(OC3(c4ccc(F)cc4)CC3)c2)c2c(N)ncc(-c3cnn(C4CCOCC4)c3)c21 [Compound 140, N-(4-(4-amino-1-methyl-7-(1-(tetrahydro-2H-pyran-4-yl)-1H-pyrazol-4-yl)-1H-pyrazolo[4,3-c]pyridin-3-yl)-2-(1-(4-fluorophenyl)cyclopropoxy)phenyl)-1,1-difluoromethane-sulfonamide] | < 5.00 | < 5.00 |
| C[C@H](Oc1cc(-c2nn(C)c3c(N4CCOCC4)cnc(N)c23)ccc1NS(=O)(=O)C(F)F)c1ccc(F)cc1 [Compound 141, N-{4-[4-amino-1-methyl-7-(morpholin-4-yl)-1H-pyrazolo[4,3-c]pyridin-3-yl]-2-[(1S)-1-(4-fluorophenyl)ethoxy]phenyl}-1,1-difluoromethanesulfonamide] | < 5.00 | < 5.00 |
| C[C@H](Oc1cc(-c2nn(C)c3c(-c4cnn(C5CCN(C)C6(CC6)C5)c4)cnc(N)c23)ccc1NS(=O)(=O)C(F)F)c1ccc(F)cc1 (stereo partly drawn) [Compound 145, N-(4-(4-amino-1-methyl-7-(1-(4-methyl-4-azaspiro[2.5]octan-7-yl)-1H-pyrazol-4-yl)-1H-pyrazolo[4,3-c]pyridin-3-yl)-2-((S)-1-(4-fluorophenyl)ethoxy)phenyl)-1,1-difluoromethanesulfonamide] | < 5.00 | < 5.00 |
| C[C@H](Oc1cc(-c2nn(C)c3c(-c4cnn(C5CCC(F)(F)CC5)c4)cnc(N)c23)ccc1NS(=O)(=O)C(F)F)c1ccc(F)cc1 [Compound 146, (S)-N-(4-(4-amino-7-(1-(4,4-difluorocyclohexyl)-1H-pyrazol-4-yl)-1-methyl-1H-pyrazolo[4,3-c]pyridin-3-yl)-2-(1-(4-fluorophenyl)ethoxy)phenyl)-1,1-difluoromethanesulfonamide] | < 5.00 | < 5.00 |
| Cc1nn(C2CCN(C)C(C)(C)C2)cc1-c1cnc(N)c2c(-c3ccc(NS(=O)(=O)C(F)F)c(O[C@@H](C)c4ccc(F)cc4)c3)nn(C)c12 (stereo partly drawn) [Compound 156, N-(4-(4-amino-1-methyl-7-(3-methyl-1-(1,2,2-trimethylpiperidin-4-yl)-1H-pyrazol-4-yl)-1H-pyrazolo[4,3-c]pyridin-3-yl)-2-((S)-1-(4-fluorophenyl)ethoxy)phenyl)-1,1-difluoromethanesulfonamide] | < 5.00 | < 5.00 |
